Measurements taken from PMC11240924, “Isolation, Identification, and Biological Activities of a New Chlorin e6 Derivative” (International Journal of Molecular Sciences, 2024).
Where two headings read alike, the source gives them in different places.

Assays:
[1] = MTT cytotoxicity (PDT and dark), PANC-1; format: cell-based, Human; details: human, PANC-1 cells, no illumination, MTT after 24 h
From the text: (§1) B16F10 (KCLB80008), MIA PaCa-2 (KCLB21420), PANC-1 (KCLB21469), HT-29 (KCLB30038), AsPC-1 (KCLB21682), and Raw 264.7 (KCLB40071) cells were procured from the Korean Cell Line Bank (KCLB, Seoul, Republic of Korea). AsPC-1 and RAW264.7 were thawed and maintained in RPMI-1640 media (Life Technologies corporation, Carlsbad, CA, USA) supplemented with 10% fetal bovine serum (Life Technologies corporation, USA) and 1% penicillin and streptomycin (Life Technologies corporation, USA), while MIA PaCa-2, PANC-1, HT-29, and B16F10 cell lines were cultured in DMEM (Life technologies corporation, USA) containing 10% fetal bovine serum and 1% penicillin and streptomycin. All the cells were cultured at 37 °C in a 5% CO2 incubator.
(§2) After seeding B16F10 or MIA PaCa-2 at a density of 5 × 10^3 cells/well and PANC-1, HT-29, or AsPC-1 at a density of 1 × 10^4 cells/well in 96-well plates, the cells were incubated overnight at 37 °C in a CO2 incubator. The cells were exposed to different doses of either chlorin e6 or rhodin g7 7^1-ethyl ester (0, 2.5, 5, 10, 20, 40, and 80 µM) for 3 h. After the incubation, the cells were either subjected to a 660 nm laser with a power density of 50 mW (0.5 J/cm^2) or not and were further incubated for 24 h at 37 °C. Moreover, the MTT assay was used to analyze the cell viability. The absorbance values of 540 nm were then measured using a microplate reader (Multiskan GO, Thermo Fisher Scientific, Oy, Ratastie 2, FI-01620 Vantaa, Finland).

[2] = test system: PANC-1; test: MTT cytotoxicity (PDT and dark), PANC-1; format: cell-based, Human; details: Homo sapiens, light or radiation study, 3 h exposure, 660 nm laser 0.5 J/cm^2, MTT after 24 h
From the text: as §1, §2

[3] = test system: B16F10, MIA PaCa-2, PANC-1, HT-29, AsPC-1; test: MTT cytotoxicity, statements over all cell lines of the panel; format: cell-based
From the text: as §1
as §2, with “The cells were exposed to different doses of either chlorin e6 or rhodin g7 7^1-ethyl ester (0, 2.5, 5, 10, 20, 40, and 80 µM) for 3 h.” left out

[4] = as above; format: cell-based; details: mouse (B16F10), human (MIA PaCa-2, PANC-1, HT-29, AsPC-1), B16F10, MIA PaCa-2, PANC-1, HT-29 and AsPC-1 cells, read-out: cellular viability
From the text: as §1
as §2, with “The cells were exposed to different doses of either chlorin e6 or rhodin g7 7^1-ethyl ester (0, 2.5, 5, 10, 20, 40, and 80 µM) for 3 h.” left out

[5] = test system: AsPC-1; test: MTT cytotoxicity (PDT and dark), AsPC-1; format: cell-based, Human; details: Homo sapiens, ASPC1, light or radiation study, 3 h exposure, 660 nm laser 0.5 J/cm^2, MTT after 24 h
From the text: as §1, §2

[6] = MTT cytotoxicity (PDT and dark), AsPC-1; format: cell-based, Human; details: human, AsPC-1 cells, no illumination, MTT after 24 h
From the text: as §1, §2

[7] = test system: ICR mice; set-up: method as in PMID 30609768; details: chlorin e6, greatly declined at 24 h; cited from earlier work
[8] = test system: ICR mice; test: Biodistribution, ex vivo organ fluorescence; format: in vivo; details: 2.5 mg/kg intravenous
Method: The animal study was approved by the Institutional Animal Care and Use Committee of the Dongsung Cancer Center under protocol IACUC # ds0022010107-2. The experiments were carried out in compliance with the ARRIVE guidelines. Male ICR mice (4 weeks old, OrientBio, Seongnam City, Republic of Korea) were used for the biodistribution study. The biodistribution analysis for rhodin g7 7^1-ethyl ester was calculated using tissue fluorescence. ICR mice (n = 7) were injected with or without rhodin g7 7^1-ethyl ester (2.5 mg/kg) intravenously. After the administration of rhodin g7 7^1-ethyl ester for 0, 24, 48, 72, 96, and 120 h, the mice were sacrificed, and their organs (kidney, spleen, heart, lungs, liver, skin, and pancreas) were resected. Fluorescence imaging was used to determine the ex vivo organ distributions of rhodin g7 7^1-ethyl ester utilizing the FOBI imaging system (Neo-Science, Suwon, Republic of Korea). For the rhodin g7 7^1-ethyl ester extraction, the organ tissues were then mixed with lysis buffer, homogenized in a tissue homogenizer, and centrifuged at 9000 rpm for 15 min. The rhodin g7 7^1-ethyl ester content in the supernatant was then evaluated using a Spark Multimode Microplate Reader (Tecan Trading AG, Männedorf, Switzerland) spectrophotometrically at 660 nm. The fluorescence intensity was adjusted to the tissue weight.

[9] = complete absence of illumination, read-out: IC50 values dark toxicity, range over cell lines
[10] = light or radiation study, PDT, light dose 0.5 J/cm^2, five cancer cell lines, read-out: IC50 values post illumination, range over cancer cell lines

## C=Cc1c(C)c2cc3nc(c(CC(=O)O)c4[nH]c(cc5nc(cc1[nH]2)C(C)=C5CC)c(C)c4C(=O)O)[C@@H](CCC(=O)O)[C@@H]3C [chlorin e6]
[1]
  IC50: 302 µM
[2]
  IC50: 17.9 µM
[3]; chlorin e6-PDT, concentrations greater than 59.8 µM, all cell lines
  cellular viability: 10%
[3]; chlorin e6-PDT, dose of 7.8 µM, all cell lines, vs vehicle-treated control
  viability at 7.8 µM: ≥ 90%
[3]; [9]
  IC50: 250 to 564 µM
[3]; [10]
  IC50: 17.6 to 33.8 µM
[4]; chlorin e6 dark, concentrations as high as 169.2 µM
  viability: ≥ 90%
[4]; chlorin e6 dark, concentrations up to 729.4 µM, all cell lines
  viability: < 10%
[5]
  IC50: 30.4 µM
[6]
  IC50: 248 µM
[7]
  time of maximum fluorescence intensity post injection: 0 h

## C=Cc1c(C)c2cc3nc(c(CC(=O)O)c4[nH]c(cc5nc(cc1[nH]2)C(C(=O)OCC)=C5CC)c(C)c4C(=O)O)[C@@H](CCC(=O)O)[C@@H]3C [rhodin g7 7^1-ethyl ester]
[1]
  IC50: 279 µM
[2]
  IC50: 8.4 µM
[3]; [9]
  IC50: 163 to 389 µM
[3]; laser 0.5 J/cm^2, majority of the cancer cell lines
  higher cytotoxicity compared to chlorin e6: 2 fold
[3]; [10]
  IC50: 8.4 to 49.1 µM
[3]; rhodin g7 7^1-ethyl ester PDT, concentrations higher than 53.7 µM, all cell lines
  cellular viability: 10%
[4]; rhodin g7 7^1-ethyl ester dark, concentrations as high as 37.4 µM
  viability: ≥ 90%
[4]; rhodin g7 7^1-ethyl ester dark, doses as high as 660 µM, all cell lines
  viability: < 10%
[5]
  IC50: 49.1 µM
[6]
  IC50: 395 µM
[8]; 0-120 h
  time of peak fluorescence intensity post injection, all organs: 0 h
[8]; ex vivo FLI of excised organs
  organ with greatest signal intensity (predominant accumulation): liver
